Assay results published in patent publication US9943398B2, “Increasing survival of free tissue grafts and flaps using phosphodiesterase type 5 (PDE5) inhibitors” (New York University, priority 2012, dated 2018).

Experiments:
Type in all cases: in vivo, mice
[1] = tested on: explanted fat grafts (Tie2/LacZ donor, wild type FVB recipient); assay: Quantitative PCR of 2-day old explanted fat grafts after sildenafil pretreatment of donor tissue; conditions: qPCR
Procedure: (§1) To examine the effect of PDE5 inhibitor pretreatment of donor graft tissue on graft take and survival, transfer of syngeneic fat between Tie2/LacZ mice (donor) and wild type FVB mice (recipient) was performed. A schematic representation of the protocol is depicted in FIG. 1A. Since the transgenic mice express the lacZ gene in their blood vessels, donor and recipient vasculature can be independently visualized and assessed based on the presence or absence of lacZ gene expression.
Prior to harvesting the inguinal fat pads from 6-12 week old transgenic FVB Tie2/LacZ mice, the pads were infiltrated with small volumes of PBS (control) and 35 nM sildenafil citrate in PBS and allowed to dwell for 15-20 minutes. The pads were harvested, washed in PBS, and finely minced to simulate conditions of human harvest. The minced fat was centrifuged at 3000 rpm for 3 minutes and the aqueous and oil layers removed leaving the adipose layer for injection. The dorsum of syngeneic wildtype FVB mice was used as the recipient bed for the processed lipoaspirate, as previously described (Sultan et al., “Human Fat Grafting Alleviates Radiation Skin Damage in a Murine Model,” Plast Reconstr Surg 128:363-72 (2011) and Thanik et al., “A Murine Model for Studying Diffusely Injected Human Fat,” Plast Reconstr Surg 124:74-81 (2009), which are hereby incorporated by reference in their entirety). Autologous fat was infiltrated using a blunt tip cannula through a 2-mm caudal midline incision. The infiltration cannula was advanced and withdrawn in a fan like pattern in the dorsal subdermal plane of the mouse, to maintain an even layer over the entire dorsal surface.

fat grafts [2] = assay: Vascular flux (Doppler) in grafted fat tissue after transplantation
Procedure: as §1
(§2) Prior to harvesting the inguinal fat pads from 6-12 week old transgenic FVB Tie2/LacZ mice, the pads were infiltrated with small volumes of PBS (control) and 35 nM sildenafil citrate in PBS and allowed to dwell for 15-20 minutes. The pads were harvested, washed in PBS, and finely minced to simulate conditions of human harvest. The minced fat was centrifuged at 3000 rpm for 3 minutes and the aqueous and oil layers removed leaving the adipose layer for injection. The dorsum of syngeneic wildtype FVB mice was used as the recipient bed for the processed lipoaspirate, as previously described (Sultan et al., “Human Fat Grafting Alleviates Radiation Skin Damage in a Murine Model,” Plast Reconstr Surg 128:363-72 (2011) and Thanik et al., “A Murine Model for Studying Diffusely Injected Human Fat,” Plast Reconstr Surg 124:74-81 (2009), which are hereby incorporated by reference in their entirety). […]

fat grafts [3] = assay: Graft volume maintenance and graft survival analysis after fat transfer
Procedure: as §1, §2

fat grafts [4] = assay: Graft weight retention of explanted fat grafts; conditions: 8 weeks post transplant
Procedure: as §1, §2

[5] = 2-day old explanted grafts, 35 nM sildenafil citrate pretreatment vs PBS/saline control
[6] = explanted tissue, sildenafil pretreatment vs saline control

CCCc1nn(C)c2c(=O)nc(-c3cc(S(=O)(=O)N4CCN(C)CC4)ccc3OCC)[nH]c12 [sildenafil, 5-{2-Ethoxy-5-[(4-methyl-1-piperazinyl)sulfonyl]phenyl}-1-methyl-3-propyl-1,4-dihydro-7H-pyrazolo[4,3-d]pyrimidin-7-one 2-hydroxy-1,2,3-propanetricarboxylate (1:1)]
LacZ expression (donor-derived endothelial cell function/viability) [1, 5]: increased | PECAM-1 expression (donor-derived endothelial cell function/viability) [1, 5]: increased | expression of the inflammatory gene SDF-1α [1, 6]: decreased | expression of the inflammatory gene VCAM [1, 6]: decreased | revascularization within the core of the graft (fat grafts [2]; 1 and 2 weeks post grafting, vs control): significant improvement in revascularization | restoration of blood flow within the grafted tissues (vascular flux) (fat grafts [2]; first two weeks following transplantation, vs saline control): faster restoration of blood flow | graft tissue volume after transfer (fat grafts [3]; over 12 weeks after transfer, vs saline treated grafts, which are resorbed quickly): maintained virtually all of its volume over time | graft survival (fat grafts [3]; survival analysis vs saline-treated control grafts and devascularized (trypsin-inactivated) grafts): survive significantly longer | enhanced graft retention (percent graft weight retention) compared to saline treated grafts (fat grafts [4]): > 2 fold
